Holding throughout (format): in vivo
Assay [1] deals with LOLPE. Kind of assay: Pre-emergence biological efficacy. Particulars: Lolium perenne, 312 h, evaluated after 13 days, read-out: damage to plant (100=total damage to plant; 0=no damage to plant). Summed up: (§1)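 Pots sown and kept one day in glasshouse (24/19° C., 16 h light), then sprayed with compound formulated in IF50 (50 g/l) diluted in 0.2% Genapol XO80 to final dose. Grown at 24/18° C., 15 h light, 50% humidity; damage scored after 13 days, 0 none to 100 total.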

In assay [2] the test system is ECHCG. Kind of assay: Pre-emergence biological efficacy. Particulars: Echinochloa crus-galli, 312 h, evaluated after 13 days, read-out: damage to plant (100=total damage to plant; 0=no damage to plant). The method in brief: as §1
Assay [3] concerns IPOHE. The assay can be described thus: Pre-emergence biological efficacy. Particulars: Ipomoea hederacea, 312 h, evaluated after 13 days, read-out: damage to plant (100=total damage to plant; 0=no damage to plant). Summed up:
as §1

Assay [4] deals with AMAPA. Kind of assay: Pre-emergence biological efficacy. Particulars: Amaranthus palmeri, 312 h, evaluated after 13 days, read-out: damage to plant (100=total damage to plant; 0=no damage to plant). Summed up: as §1
Assay [5] relates to SETFA. Kind of assay: Pre-emergence biological efficacy. Conditions: Setaria faberi, 312 h, evaluated after 13 days, read-out: damage to plant (100=total damage to plant; 0=no damage to plant). The method in brief:
as §1

The test system of assay [6] is EPHHL. Kind of assay: Pre-emergence biological efficacy. Particulars: Euphorbia heterophylla, 312 h, evaluated after 13 days, read-out: damage to plant (100=total damage to plant; 0=no damage to plant). The method in brief:
as §1

The test system of assay [7] is LOLPE. The assay can be described thus: Post-emergence biological efficacy. Particulars: Lolium perenne, 312 h, evaluated after 13 days, read-out: damage to plant (100=total damage to plant; 0=no damage to plant). The method in brief:
(§2)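 Plants grown 14 days in glasshouse, then sprayed post-emergence with compound formulated in IF50 and diluted in 0.2% Genapol XO80 to the desired dose. Damage scored after 13 days on a 0–100 scale (100 = total damage).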

The test system of assay [8] is ECHCG. Kind of assay: Post-emergence biological efficacy. Conditions: Echinochloa crus-galli, 312 h, evaluated after 13 days, read-out: damage to plant (100=total damage to plant; 0=no damage to plant). Summed up: as §2
In assay [9] the test system is IPOHE. Kind of assay: Post-emergence biological efficacy. Conditions: Ipomoea hederacea, 312 h, evaluated after 13 days, read-out: damage to plant (100=total damage to plant; 0=no damage to plant). Summed up: as §2
The test system of assay [10] is AMAPA. Kind of assay: Post-emergence biological efficacy. Particulars: Amaranthus palmeri, 312 h, evaluated after 13 days, read-out: damage to plant (100=total damage to plant; 0=no damage to plant). The method in brief:
as §2

Another assay concerns CHEAL. The assay can be described thus: Post-emergence biological efficacy. Particulars: Chenopodium album, 312 h, evaluated after 13 days, read-out: damage to plant (100=total damage to plant; 0=no damage to plant). Summed up: as §2
Assay [11] deals with SETFA. Kind of assay: Post-emergence biological efficacy. Conditions: Setaria faberi, 312 h, evaluated after 13 days, read-out: damage to plant (100=total damage to plant; 0=no damage to plant). Summed up: as §2
For a further assay, the system named is DIGSA. Kind of assay: Post-emergence biological efficacy. Particulars: Digitaria sanguinalis, 312 h, evaluated after 13 days, read-out: damage to plant (100=total damage to plant; 0=no damage to plant). Summed up: as §2
Assay [12] deals with EPHHL. Kind of assay: Post-emergence biological efficacy. Conditions: Euphorbia heterophylla, 312 h, evaluated after 13 days, read-out: damage to plant (100=total damage to plant; 0=no damage to plant). Summed up:
as §2

The subject of the next assay is ELEIN. Kind of assay: Post-emergence biological efficacy. Conditions: 312 h, evaluated after 13 days, read-out: damage to plant (100=total damage to plant; 0=no damage to plant). The method in brief: as §2

Each structure is given as a SMILES string.

For `CCOC(=O)C1(C)CC(c2cc(-c3cc(C(F)(F)F)cnc3F)c(F)cc2Cl)=NO1` (stereo not drawn) [Compound 1-235, Ethyl 3-[2-chloro-4-fluoro-5-[2-fluoro-5-(trifluoromethyl)-3-pyridyl]phenyl]-5-methyl-4H-isoxazole-5-carboxylate], the pest or weed control at 250 g/ha is 0% in the assay with LOLPE [1]; 0% in the assay with ECHCG [2]; 60% in the assay on IPOHE [3]; 100% with AMAPA [4]; 0% in the assay with SETFA [5]; 50% with EPHHL [6]. The pest or weed control at 250 g/ha was determined as 60% with LOLPE [7]; 60% with ECHCG [8]; 100% in the assay on IPOHE [9]; 100% in the assay with AMAPA [10]; 100% in the assay with CHEAL; 100% in the assay on SETFA [11]. For the same molecule, the pest or weed control at 250 g/ha with DIGSA stood at 70%; with EPHHL [12], 100%; in the assay with ELEIN, 100%.
Regarding `CCOC(=O)C1(C)CC(c2cc(-c3ncc([N+](=O)[O-])cc3Cl)c(F)cc2Cl)=NO1` (stereo not drawn) [Compound 1-355, Ethyl 3-[2-chloro-5-(3-chloro-5-nitro-2-pyridyl)-4-fluoro-phenyl]-5-methyl-4H-isoxazole-5-carboxylate], the pest or weed control at 250 g/ha in the assay with LOLPE [1] came to 20%; in the assay on ECHCG [2], 10%; in the assay on IPOHE [3] it was 20%; in the assay with AMAPA [4], 0%; with SETFA [5], 10%; with EPHHL [6], 20%. In addition, the pest or weed control at 250 g/ha in the assay on LOLPE [7] turned out to be 50%; with ECHCG [8] it was 50%; in the assay with IPOHE [9] it was 70%; in the assay with AMAPA [10], 100%; in the assay on CHEAL it was 60%; in the assay on SETFA [11], 40%. In addition, the pest or weed control at 250 g/ha in the assay on DIGSA was 50%; in the assay with EPHHL [12], 80%; in the assay with ELEIN, 50%.
On to `CCOC(=O)C1(C)CC(c2cc(-c3cc(C)cnc3F)c(F)cc2Cl)=NO1` (stereo not drawn) [Compound 1-223, Ethyl 3-[2-chloro-4-fluoro-5-(2-fluoro-5-methyl-3-pyridyl)phenyl]-5-methyl-4H-isoxazole-5-carboxylate], for which the pest or weed control at 250 g/ha in the assay with LOLPE [1], with ECHCG [2], in the assay with IPOHE [3], with AMAPA [4], with SETFA [5] and in the assay with EPHHL [6] was 0% in each case. Moreover, the pest or weed control at 250 g/ha stood at 20% with LOLPE [7]; 50% with ECHCG [8]; 100% in the assay with IPOHE [9]; 100% in the assay with AMAPA [10]; 80% in the assay with CHEAL; 80% in the assay on SETFA [11]. Also, the pest or weed control at 250 g/ha in the assay with DIGSA was 30%; in the assay with EPHHL [12] it was 70%; with ELEIN it was 10%.
`CCOC(=O)C1(C)CC(c2cc(-c3cnccc3OC)c(F)cc2Cl)=NO1` (stereo not drawn) [Compound 1-259, Ethyl 3-[2-chloro-4-fluoro-5-(4-methoxy-3-pyridyl)phenyl]-5-methyl-4H-isoxazole-5-carboxylate]: the pest or weed control at 250 g/ha with LOLPE [1], in the assay with ECHCG [2], in the assay on IPOHE [3], in the assay with AMAPA [4], in the assay on SETFA [5] and in the assay with EPHHL [6] was 0% in each case. Besides, the pest or weed control at 250 g/ha in the assay on LOLPE [7] turned out to be 0%; with ECHCG [8], 20%; in the assay on IPOHE [9], 30%; in the assay with AMAPA [10] it was 60%; with CHEAL it was 80%; with SETFA [11], 30%. For the same molecule, the pest or weed control at 250 g/ha in the assay on DIGSA came out at 40%; in the assay on EPHHL [12], 20%; in the assay with ELEIN it was 20%.

(Values after patent US20240124432A1, “HERBICIDAL COMPOUNDS” (SYNGENTA CROP PROTECTION AG, priority 2020, published 2024).)
